Test results: patent US8143484B2, “Method for regulating agrobacterium-mediated transformation” (priority 2008, dated 2012)

Columns and labels:
[1] = test system: P898012 sorghum immature embryos; experiment: Phenolic compound production by infected, cultured sorghum immature embryos (visual exudates); format: cell-based; details: infected and cultured immature zygotic embryos of sorghum (FIG. 3)
Protocol: Transformation was carried out in 6 distinctive but sequential phases. Freshly isolated embryos of P898012 or GS3 were mixed together or separated into 1.5 mL of medium 700 either lacking or containing […] acetosyringone. The concentration of A. tumefaciens harbouring the vector PHP15303 (FIG. 5) in the suspension was adjusted to 0.857×10^9 cfu/mL [Optical Density (OD) approximately 0.6 at 550 nm]. The infection suspension was vortexed gently for 15 seconds, poured into 1 cm-diameter microplates and vacuumed for 5 minutes with gentle rocking for mixing. • 2. The Agrobacterium suspension was then aspirated and the embryos plated on co-cultivation medium 710B either lacking or containing […] acetosyringone for 3 days (co-cultivation) and cultured in the dark at 25° C. • 3. […]
Cultured immature zygotic embryos of the sorghum genotype P898012 produce phenolic compounds which can be visually identified as black/dark brown exudates within the proximity of the embryos on tissue culture medium (FIG. 2 (I) and FIG. 1 (J)). When these immature embryos are infected with A. tumefaciens, higher quantities of these phenolic compounds are produced, especially when the medium on which the embryos are cultured is not supplemented with the synthetic acetosyringone (contrast FIGS. 2 (A & B) vs. FIGS. 2 (D & E)).

sorghum = details: acetosyringone alone used to induce vir gene expression; cited from earlier work
lillies = details: addition of acetosyringone; cited from earlier work
wheat = details: 200 μM instead of the usual 100 μM; cited from earlier work

## COc1cc(C(C)=O)cc(OC)c1O [acetosyringone, 4-acetyl-2,6-dimethoxyphenol]
[1]
  effect on production of phenolic compounds: depresses the production of phenolic compounds
sorghum
  Agrobacterium transformation efficiency: very low
lillies
  effect on transformation efficiency: does not have any effect on transformation efficiency
wheat
  T-DNA transfer and transformation efficiency: higher levels of T-DNA transfer and transformation efficiency
